Test results as given in patent US10670605B2, “Cysteine reactive probes and uses thereof” (The Scripps Research Institute, priority 2015, dated 2020).

Experiments:
Test in all cases: Competitive isoTOP-ABPP in situ (fragment-treated cells)
Format in all cases: cell-based
[1] = target: cysteines in MDA-MB-231 and Ramos cells (Homo sapiens, UniProt Q7Z2W4)
[2] = target: T1, cysteines in MDA-MB-231 and Ramos cells (Homo sapiens, UniProt Q13162)
T1 sequence (Q13162 38-271): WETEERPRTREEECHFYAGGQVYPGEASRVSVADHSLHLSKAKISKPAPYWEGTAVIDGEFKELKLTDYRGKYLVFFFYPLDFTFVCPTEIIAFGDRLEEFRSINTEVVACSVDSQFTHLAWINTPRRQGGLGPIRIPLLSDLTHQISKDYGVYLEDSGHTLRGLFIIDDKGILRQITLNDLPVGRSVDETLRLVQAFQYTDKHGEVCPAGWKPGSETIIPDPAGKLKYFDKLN

[3] = target: T2, cysteines in MDA-MB-231 and Ramos cells (Homo sapiens, UniProt O95336); settings: 200 μM, insitu, 231
T2 sequence (O95336 1-258): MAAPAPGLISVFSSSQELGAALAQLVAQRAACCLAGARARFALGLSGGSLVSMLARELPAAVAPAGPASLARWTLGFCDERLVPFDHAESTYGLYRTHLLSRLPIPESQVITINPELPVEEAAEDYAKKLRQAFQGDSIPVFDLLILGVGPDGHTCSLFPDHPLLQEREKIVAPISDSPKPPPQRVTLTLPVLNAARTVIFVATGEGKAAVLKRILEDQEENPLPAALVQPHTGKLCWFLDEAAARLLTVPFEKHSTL

[4] = target: T3, cysteines in MDA-MB-231 and Ramos cells (Homo sapiens, UniProt P30101)
T3 sequence (P30101 25-505): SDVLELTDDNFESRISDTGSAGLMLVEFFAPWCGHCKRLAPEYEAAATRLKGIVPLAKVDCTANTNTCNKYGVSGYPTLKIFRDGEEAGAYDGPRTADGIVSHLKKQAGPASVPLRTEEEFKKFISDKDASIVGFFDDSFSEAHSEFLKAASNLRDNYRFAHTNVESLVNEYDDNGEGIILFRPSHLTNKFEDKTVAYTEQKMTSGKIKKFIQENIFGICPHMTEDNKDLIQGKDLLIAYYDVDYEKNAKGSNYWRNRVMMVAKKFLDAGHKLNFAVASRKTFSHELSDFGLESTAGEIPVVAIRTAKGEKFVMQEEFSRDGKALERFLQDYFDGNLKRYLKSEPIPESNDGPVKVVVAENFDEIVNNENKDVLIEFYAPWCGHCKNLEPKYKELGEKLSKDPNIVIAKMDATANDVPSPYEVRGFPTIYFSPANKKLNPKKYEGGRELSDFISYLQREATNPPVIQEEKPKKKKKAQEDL

[5] = target: T4, cysteines in MDA-MB-231 and Ramos cells (Homo sapiens, UniProt Q13418); settings: for isoTOP-ABPP ratio Q13418_C346: 200 μM, insitu
T4 sequence (Q13418 1-452): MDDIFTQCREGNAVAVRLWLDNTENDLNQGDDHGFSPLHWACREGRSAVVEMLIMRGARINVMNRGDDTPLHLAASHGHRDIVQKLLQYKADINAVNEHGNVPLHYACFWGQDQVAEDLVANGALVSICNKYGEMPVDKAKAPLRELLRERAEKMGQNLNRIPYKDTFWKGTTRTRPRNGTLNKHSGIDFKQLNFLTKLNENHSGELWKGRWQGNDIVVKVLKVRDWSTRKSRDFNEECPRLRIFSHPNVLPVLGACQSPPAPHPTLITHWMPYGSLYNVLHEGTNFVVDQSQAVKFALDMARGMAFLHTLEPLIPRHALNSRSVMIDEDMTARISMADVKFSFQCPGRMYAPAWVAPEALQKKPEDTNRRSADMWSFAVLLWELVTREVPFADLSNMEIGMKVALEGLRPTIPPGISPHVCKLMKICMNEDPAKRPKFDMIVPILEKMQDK

[6] = target: T5, cysteines in MDA-MB-231 and Ramos cells (Homo sapiens, UniProt P50570); settings: for isoTOP-ABPP ratio P50570_C27: 200 μM, insitu, 231
T5 sequence (P50570 1-870): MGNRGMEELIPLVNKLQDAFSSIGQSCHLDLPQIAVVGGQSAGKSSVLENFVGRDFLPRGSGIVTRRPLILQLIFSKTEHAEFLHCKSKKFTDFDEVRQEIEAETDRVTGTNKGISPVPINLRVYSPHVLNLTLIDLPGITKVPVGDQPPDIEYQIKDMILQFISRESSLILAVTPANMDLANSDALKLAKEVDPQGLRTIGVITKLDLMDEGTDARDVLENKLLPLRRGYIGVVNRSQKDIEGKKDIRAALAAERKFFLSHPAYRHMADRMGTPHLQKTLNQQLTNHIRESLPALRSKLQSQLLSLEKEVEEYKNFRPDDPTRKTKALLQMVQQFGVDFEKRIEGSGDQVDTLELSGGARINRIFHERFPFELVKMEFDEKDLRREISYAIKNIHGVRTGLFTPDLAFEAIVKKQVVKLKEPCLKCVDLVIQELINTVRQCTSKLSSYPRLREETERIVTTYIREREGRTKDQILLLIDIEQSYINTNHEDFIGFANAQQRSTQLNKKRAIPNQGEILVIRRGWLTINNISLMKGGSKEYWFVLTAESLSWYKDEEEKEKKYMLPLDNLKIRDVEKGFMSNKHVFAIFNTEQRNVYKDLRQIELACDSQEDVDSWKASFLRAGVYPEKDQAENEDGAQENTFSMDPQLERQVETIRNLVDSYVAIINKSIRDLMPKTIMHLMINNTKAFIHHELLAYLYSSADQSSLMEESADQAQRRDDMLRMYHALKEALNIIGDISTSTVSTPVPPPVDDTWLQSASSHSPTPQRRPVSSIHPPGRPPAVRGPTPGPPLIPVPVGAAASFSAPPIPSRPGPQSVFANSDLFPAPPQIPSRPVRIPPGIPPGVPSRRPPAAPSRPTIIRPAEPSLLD

[7] = target: T6, cysteines in MDA-MB-231 and Ramos cells (Homo sapiens, UniProt A6NDU8); settings: for isoTOP-ABPP ratio A6NDU8_C179: 200 μM, insitu, 231
T6 sequence (A6NDU8 1-294): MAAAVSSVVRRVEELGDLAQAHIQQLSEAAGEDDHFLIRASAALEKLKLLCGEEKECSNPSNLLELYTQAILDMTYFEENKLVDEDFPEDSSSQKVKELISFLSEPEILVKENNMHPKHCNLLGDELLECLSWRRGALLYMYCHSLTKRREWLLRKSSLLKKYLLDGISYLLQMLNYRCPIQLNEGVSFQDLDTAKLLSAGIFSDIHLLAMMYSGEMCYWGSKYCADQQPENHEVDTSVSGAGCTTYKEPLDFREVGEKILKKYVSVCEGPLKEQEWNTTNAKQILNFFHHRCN

[8] = target: cysteines in MDA-MB-231 and Ramos cells (Homo sapiens, UniProt Q02252); settings: for isoTOP-ABPP ratio Q02252_C317: 200 μM, insitu
cysteines in MDA-MB-231 and Ramos cells (Homo sapiens, UniProt Q02252), sequence (Q02252 34-535): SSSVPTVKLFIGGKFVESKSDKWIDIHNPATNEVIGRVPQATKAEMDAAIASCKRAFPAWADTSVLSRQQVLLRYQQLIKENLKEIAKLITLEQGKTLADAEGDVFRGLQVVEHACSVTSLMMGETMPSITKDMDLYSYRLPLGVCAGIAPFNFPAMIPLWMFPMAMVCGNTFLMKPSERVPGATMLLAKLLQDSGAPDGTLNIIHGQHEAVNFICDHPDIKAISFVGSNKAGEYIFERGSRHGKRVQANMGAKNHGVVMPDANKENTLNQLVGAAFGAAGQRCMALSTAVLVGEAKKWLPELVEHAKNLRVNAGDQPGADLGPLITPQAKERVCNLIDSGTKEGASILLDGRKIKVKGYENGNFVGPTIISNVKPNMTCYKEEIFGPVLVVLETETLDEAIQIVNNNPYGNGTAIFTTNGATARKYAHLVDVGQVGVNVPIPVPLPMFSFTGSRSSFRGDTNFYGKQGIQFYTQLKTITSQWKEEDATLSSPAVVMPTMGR

cysteines in MDA-MB-231 and Ramos cells (Homo sapiens, UniProt Q7Z2W4), sequence (Q7Z2W4 whole entry): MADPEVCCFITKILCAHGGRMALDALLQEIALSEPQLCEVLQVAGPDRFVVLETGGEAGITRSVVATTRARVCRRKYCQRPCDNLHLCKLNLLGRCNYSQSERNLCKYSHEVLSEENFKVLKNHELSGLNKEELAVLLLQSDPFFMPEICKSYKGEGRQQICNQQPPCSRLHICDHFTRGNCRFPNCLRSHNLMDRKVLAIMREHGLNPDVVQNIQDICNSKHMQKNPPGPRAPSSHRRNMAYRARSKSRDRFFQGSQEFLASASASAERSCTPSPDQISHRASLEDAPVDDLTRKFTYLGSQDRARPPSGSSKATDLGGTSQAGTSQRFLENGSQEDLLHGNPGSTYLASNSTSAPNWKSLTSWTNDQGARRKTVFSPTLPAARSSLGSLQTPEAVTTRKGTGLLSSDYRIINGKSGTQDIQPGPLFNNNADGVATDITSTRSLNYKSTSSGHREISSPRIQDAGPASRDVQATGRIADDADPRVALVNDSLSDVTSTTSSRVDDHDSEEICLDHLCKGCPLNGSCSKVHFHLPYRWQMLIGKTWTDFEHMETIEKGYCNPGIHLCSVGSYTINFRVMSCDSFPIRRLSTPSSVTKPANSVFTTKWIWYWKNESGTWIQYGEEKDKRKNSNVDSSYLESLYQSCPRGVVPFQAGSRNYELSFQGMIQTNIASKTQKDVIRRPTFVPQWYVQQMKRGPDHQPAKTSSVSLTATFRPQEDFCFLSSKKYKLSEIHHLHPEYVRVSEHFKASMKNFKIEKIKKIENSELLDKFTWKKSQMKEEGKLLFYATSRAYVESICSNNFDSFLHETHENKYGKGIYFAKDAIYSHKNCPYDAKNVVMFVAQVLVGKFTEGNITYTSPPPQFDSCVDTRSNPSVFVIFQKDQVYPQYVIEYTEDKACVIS

Compound | isoTOP-ABPP ratio Q13418_C346 [5]; 231 | isoTOP-ABPP ratio Q7Z2W4_C645 ([1]; 200 μM, insitu, 231) | isoTOP-ABPP ratio P50570_C27 [6] | isoTOP-ABPP ratio P30101_C406 ([4]; 200 μM, insitu, 231) | isoTOP-ABPP ratio A6NDU8_C179 [7] | isoTOP-ABPP ratio Q02252_C317 [8]; 231 | isoTOP-ABPP ratio P30101_C57 ([4]; 200 μM, insitu, 231) | isoTOP-ABPP ratio Q13162_C51 ([2]; 200 μM, insitu, 231) | further results
COc1cc2c(cc1OC)CN(C(=O)CCl)CC2 [compound 8] | – | – | – | – | – | – | – | – | isoTOP-ABPP reactivity Q7Z2W4_C645 ZC3HAV1 ([1]; 200 μM, insitu, 231): 5.1; isoTOP-ABPP reactivity Q13162_C51 PRDX4 ([2]; 200 μM, insitu, 231): 1.4; isoTOP-ABPP reactivity O95336_C32 PGLS [3]: 20.0; isoTOP-ABPP reactivity P30101_057 PDIA3 ([4]; 200 μM, insitu, 231): 20.0; isoTOP-ABPP reactivity P30101_C406 PDIA3 ([4]; 200 μM, insitu, 231): 20.0
COc1ccc(C2CC(c3cccs3)=NN2C(=O)CCl)cc1 (centres unmarked) [compound 4] | – | – | – | – | – | – | – | – | isoTOP-ABPP reactivity Q13418_C346 ILK ([5]; 100 μM in situ 231): 0.8; isoTOP-ABPP reactivity Q7Z2W4_C645 ZC3HAV1 ([1]; 100 μM in situ 231): 4.4; isoTOP-ABPP reactivity Q13162_C51 PRDX4 ([2]; 100 μM in situ 231): 1.2; isoTOP-ABPP reactivity P50570_C27 DNM2 ([6]; 100 μM in situ 231): 2.2; isoTOP-ABPP reactivity A6NDU8_C179 C5orf51 ([7]; 100 μM in situ 231): 3.0; isoTOP-ABPP reactivity Q02252_C317 ALDH6A1 ([8]; 100 μM in situ 231): 14.4; isoTOP-ABPP reactivity P30101_057 PDIA3 ([4]; 100 μM in situ 231): 20.0; isoTOP-ABPP reactivity P30101_C406 PDIA3 ([4]; 100 μM in situ 231): 9.0
O=C(CCl)Nc1cccc2ncccc12 [compound 51] | 0.8 | 1.6 | 1.1 | 6.0 | – | – | – | – | –
COc1ccccc1OCCNC(=O)CCl [compound 28] | – | – | – | – | 0.8 | 1.1 | 1.6 | – | –
O=C(CCl)N1CCN(S(=O)(=O)c2ccccc2F)CC1 [compound 10] | 1.1 | 3.8 | 3.1 | 3.3 | 1.3 | 1.5 | 3.3 | 2.0 | isoTOP-ABPP ratio Q13418_C346 ([5]; ramos): 8.3; isoTOP-ABPP ratio Q02252_C317 ([8]; ramos): 0.7; isoTOP-ABPP ratio P30101_C406 ([4]; 200 μM, insitu, ramos): 1.4
CC1CCc2ccccc2N1C(=O)CCl (centres unmarked) [compound 45] | – | 4.6 | 15.4 | 2.6 | 20.0 | 2.6 | 2.6 | 2.3 | –
